Source: patent publication US3966715A, “Herbicidal agents” (Bayer Aktiengesellschaft, priority 1966, dated 1976)

Key:
Type in all cases: in vivo
[1] = test system: Oats; assay: Pre-emergence test, oats; conditions: three weeks
Procedure: (§1) Solvent: 5 parts by weight acetone
(§2) 1 part by weight benzyloxypolyglycol ether
(§3) To produce a suitable preparation of the particular active compound, 1 part by weight of such active compound is mixed with the stated amount of solvent, the stated amount of emulsifier is then added and the resulting concentrate is thereafter diluted with water to the desired final concentration.
(§4) Seeds of the test plants are sown in normal soil and, after 24 hours, watered with the preparation of the given active compound. It is expedient to keep constant the amount of water per unit area. The concentration of the particular active compound in the preparation is of no importance, only the amount of active compound applied per unit area being decisive. After three weeks, the degree of damage to the test plants is determined and characterized by the values 0-5, which have the following meaning:
(§5) The procedure of Example 1 is repeated, and the particular active compounds tested, the amounts applied, and the results obtained can be seen from the following Table 1D: […]

[2] = test system: Wheat; assay: Post-emergence test, wheat; conditions: three weeks
Procedure: as §1, §2, §3
(§6) Test plants which have a height of about 5--15 cm. are sprayed with the preparation of the given active compound until just dew moist. After three weeks, the degree of damage to the plants is determined and characterized by the values 0-5, which have the following meaning:
(§7) The procedure of Example 2 is repeated, and the particular active compounds tested, and amounts applied, and the results obtained can be seen from the following Table 2E: […]

[3] = test system: Cotton; assay: Pre-emergence test, cotton; conditions: three weeks
Procedure: as §1, §2, §3, §4, §5

[4] = test system: Echinochloa; assay: Pre-emergence test, Echinochloa; conditions: 1.25 kg/hectare, three weeks
Procedure: as §1, §2, §3, §4, §5

[5] = test system: Wheat; assay: Pre-emergence test, wheat; conditions: three weeks
Procedure: as §1, §2, §3, §4, §5

[6] = test system: Oats; assay: Post-emergence test, oats; conditions: three weeks
Procedure: as §1, §2, §3, §6, §7

[7] = test system: Echinochloa; assay: Post-emergence test, Echinochloa; conditions: three weeks
Procedure: as §1, §2, §3, §6, §7

[8] = test system: Stellaria; assay: Post-emergence test, Stellaria; conditions: three weeks
Procedure: as §1, §2, §3, §6, §7

## CCNc1nnc(-c2ccccc2)c(=O)n1N [Compound 7, 3-ethylamino-4-amino-6-phenyl-1,2,4-triazine-5-one]
[1]; 2.5 kg/hectare
  degree of damage, Oats: 4-5

## CSc1nnc(CC(C)C)c(=O)n1N [Compound 11, 3-methylthio-4-amino-6-isobutyl-1,2,4-triazine-5-one]
[2]; 2.4 Kg/hectare
  degree of damage, Wheat: 4-5

## CN(C)c1nnc(-c2ccccc2)c(=O)n1N [Compound 16, 3-dimethylamino-4-amino-6-phenyl-1,2,4-triazine-5-one]
[3]; 2.5 kg/hectare
  degree of damage, Cotton: 4-5
[4]
  degree of damage, Echinochloa: 4-5
[2]; 1.2 Kg/hectare
  degree of damage, Wheat: 4-5
[5]; 1.25 kg/hectare
  degree of damage, Wheat: 4-5
[5]; 2.5 kg/hectare
  degree of damage, Wheat: 4-5
[5]; 5 kg/hectare
  degree of damage, Wheat: 4-5

## CCc1nnc(SC)n(N)c1=O [Compound 22, 3-methylthio-4-amino-6-ethyl-1,2,4-triazine-5-one]
[5]; 5 kg/hectare
  degree of damage, Wheat: 4-5
[6]; 1.2 Kg/hectare
  degree of damage, Oats: 4-5
[6]; 2.4 Kg/hectare
  degree of damage, Oats: 4-5

## CSc1nnc(CCC(C)C)c(=O)n1N [Compound 23, 3-methylthio-4-amino-6-isopentyl-1,2,4-triazine-5-one]
[2]; 2.4 Kg/hectare
  degree of damage, Wheat: 4-5

## CCSc1nnc(C(C)C)c(=O)n1N [Compound 148, 3-ethylthio-4-amino-6-isopropyl-1,2,4-triazine-5-one]
[3]; 2.5 kg/hectare
  degree of damage, Cotton: 4-5
[3]; 5 kg/hectare
  degree of damage, Cotton: 4-5
[2]; 2.4 Kg/hectare
  degree of damage, Wheat: 4-5
[5]; 1.25 kg/hectare
  degree of damage, Wheat: 3-4
[7]; 0.6 Kg/hectare
  degree of damage, Echinochloa: 4-5
[7]; 1.2 Kg/hectare
  degree of damage, Echinochloa: 4-5
[1]; 1.25 kg/hectare
  degree of damage, Oats: 4-5
[1]; 2.5 kg/hectare
  degree of damage, Oats: 4-5
[1]; 5 kg/hectare
  degree of damage, Oats: 4-5
[8]; 2.4 Kg/hectare
  degree of damage, Stellaria: 4-5

## CCCc1nnc(SC)n(N)c1=O [Compound 153, 3-methylthio-4-amino-6-n-propyl-1,2,4-triazine-5-one]
[3]; 1.25 kg/hectare
  degree of damage, Cotton: 4-5
[1]; 1.25 kg/hectare
  degree of damage, Oats: 4-5
[1]; 2.5 kg/hectare
  degree of damage, Oats: 4-5
[6]; 2.4 Kg/hectare
  degree of damage, Oats: 4-5

## C#CCSc1nnc(C(C)C)c(=O)n1N [Compound 158, 3-propargylthio-4-amino-6-isopropyl-1,2,4-triazine-5-one]
[8]; 1.2 Kg/hectare
  degree of damage, Stellaria: 4-5

## CNc1nnc(C(C)(C)C)c(=O)n1N [Compound 175, 3-methylamino-4-amino-6-tert.-butyl-1,2,4-triazine-5-one]
[2]; 2.4 Kg/hectare
  degree of damage, Wheat: 4-5
[7]; 0.6 Kg/hectare
  degree of damage, Echinochloa: 4-5
[7]; 1.2 Kg/hectare
  degree of damage, Echinochloa: 4-5
[6]; 0.6 Kg/hectare
  degree of damage, Oats: 4-5
[6]; 1.2 Kg/hectare
  degree of damage, Oats: 4-5

## CCNc1nnc(C(C)(C)C)c(=O)n1N [Compound 176, 3-ethylamino-4-amino-6-tert.-butyl-1,2,4-triazine-5-one]
[7]; 2.4 Kg/hectare
  degree of damage, Echinochloa: 4-5
[8]; 0.6 Kg/hectare
  degree of damage, Stellaria: 4-5

## CCCNc1nnc(C(C)C)c(=O)n1N [Compound 178, 3-n-propylamino-4-amino-6-isopropyl-1,2,4-triazine-5-one]
[5]; 5 kg/hectare
  degree of damage, Wheat: 2-3

## CCCCNc1nnc(C2CCCCC2)c(=O)n1N [Compound 182, 3-n-butylamino-4-amino-6-cyclohexyl-1,2,4-triazine-5-one]
[5]; 40 Kg/hectare
  degree of damage, Wheat: 4-5
[7]; 10 Kg/hectare
  degree of damage, Echinochloa: 4-5
[1]; 40 Kg/hectare
  degree of damage, Oats: 4-5

## CSc1nnc(C(C)(C)C)c(=O)n1NC(O)C(Cl)(Cl)Cl (stereo not drawn) [Compound 192, 3-methylthio-4-(β-trichloro-α-hydroxy-ethyl)-amino-6-tert.-butyl-1,2,4-triazine-5-one]
[3]; 1.25 kg/hectare
  degree of damage, Cotton: 4-5
[3]; 2.5 kg/hectare
  degree of damage, Cotton: 4-5
[1]; 1.25 kg/hectare
  degree of damage, Oats: 4-5
[1]; 2.5 kg/hectare
  degree of damage, Oats: 4-5
[6]; 2.4 Kg/hectare
  degree of damage, Oats: 4-5

## CSc1nnc(C(C)C)c(=O)n1N=CC1CCCCC1 [Compound 197, 3-methylthio-4-(hexahydrobenzylidene-amino)-6-isopropyl-1,2,4-triazine-5-one]
[2]; 1.2 Kg/hectare
  degree of damage, Wheat: 4-5
[5]; 1.25 kg/hectare
  degree of damage, Wheat: 4-5
[7]; 1.2 Kg/hectare
  degree of damage, Echinochloa: 4-5

## CSc1nnc(C(C)C)c(=O)n1N=Cc1ccccc1 [Compound 198, 3-methylthio-4-(benzylidene-amino)-6-isopropyl-1,2,4-trizaine-5-one]
[5]; 1.25 kg/hectare
  degree of damage, Wheat: 4-5
[6]; 0.6 Kg/hectare
  degree of damage, Oats: 3-4
[6]; 2.4 Kg/hectare
  degree of damage, Oats: 4-5
[8]; 0.6 Kg/hectare
  degree of damage, Stellaria: 4-5

## CSc1nnc(C(C)C)c(=O)n1N=Cc1ccc(Cl)cc1 [Compound 201, 3-methylthio-4-(4'-chloro-benzylidene-amino)-6-isopropyl-1,2,4-triazine-5-one]
[5]; 1.25 kg/hectare
  degree of damage, Wheat: 4-5
[7]; 1.2 Kg/hectare
  degree of damage, Echinochloa: 4-5
[8]; 1.2 Kg/hectare
  degree of damage, Stellaria: 4-5

## CSc1nnc(C(C)C)c(=O)n1N=Cc1ccco1 [Compound 203, 3-methylthio-4-(furfur-2'-ylidene-amino)-6-isopropyl-1,2,4-triazine-5-one]
[3]; 1.25 kg/hectare
  degree of damage, Cotton: 4-5
[2]; 1.2 Kg/hectare
  degree of damage, Wheat: 4-5
[8]; 2.4 Kg/hectare
  degree of damage, Stellaria: 4-5

## CSc1nnc(C(C)C)c(=O)n1N=C1CCCCC1 [Compound 204, 3-methylthio-4-(cyclohexylidene-amino)-6-isopropyl-1,2,4-triazine-5-one]
[5]; 1.25 kg/hectare
  degree of damage, Wheat: 4-5
[8]; 0.6 Kg/hectare
  degree of damage, Stellaria: 4-5

## CSc1nnc(C(C)C)c(=O)n1N=Cc1ccccc1C [Compound 206, 3-methylthio-4-(2'-methyl-benzylidene-amino)-6-isopropyl-1,2,4-triazine-5-one]
[3]; 1.25 kg/hectare
  degree of damage, Cotton: 4-5
[2]; 1.2 Kg/hectare
  degree of damage, Wheat: 3-4
[6]; 2.4 Kg/hectare
  degree of damage, Oats: 4-5
[8]; 0.6 Kg/hectare
  degree of damage, Stellaria: 4-5

## CSc1nnc(C(C)C)c(=O)n1N=Cc1ccc([N+](=O)[O-])cc1 [Compound 210, 3-methylthio-4-(4'-nitro-benzylidene-amino)-6-isopropyl-1,2,4-triazine-5-one]
[3]; 2.5 kg/hectare
  degree of damage, Cotton: 4-5
[3]; 5 kg/hectare
  degree of damage, Cotton: 4-5
[1]; 2.5 kg/hectare
  degree of damage, Oats: 4-5
[1]; 5 kg/hectare
  degree of damage, Oats: 4-5

## CSc1nnc(C(C)C)c(=O)n1N=Cc1ccc(C)cc1 [Compound 213, 3-methylthio-4-(4'-methyl-benzylidene-amino)-6-isopropyl-1,2,4-triazine-5-one]
[3]; 2.5 kg/hectare
  degree of damage, Cotton: 4-5
[3]; 5 kg/hectare
  degree of damage, Cotton: 4-5
[4]
  degree of damage, Echinochloa: 4-5
[2]; 0.6 Kg/hectare
  degree of damage, Wheat: 2-3
[2]; 1.2 Kg/hectare
  degree of damage, Wheat: 3-4
[7]; 0.6 Kg/hectare
  degree of damage, Echinochloa: 4-5
[1]; 1.25 kg/hectare
  degree of damage, Oats: 4-5
[1]; 2.5 kg/hectare
  degree of damage, Oats: 4-5
[6]; 1.2 Kg/hectare
  degree of damage, Oats: 3-4
[6]; 2.4 Kg/hectare
  degree of damage, Oats: 4-5
[8]; 0.6 Kg/hectare
  degree of damage, Stellaria: 4-5

## CSc1nnc(C(C)(C)C)c(=O)n1N=CC(C)C [Compound 215, 3-methylthio-4-(isobutylidene-amino)-6-tert.-butyl-1,2,4-triazine-5-one]
[2]; 1.2 Kg/hectare
  degree of damage, Wheat: 4-5

## CCC=Nn1c(SC)nnc(C(C)C)c1=O [Compound 216, 3-methylthio-4-(n-propylidene-amino)-6-isopropyl-1,2,4-triazine-5-one]
[5]; 1.25 kg/hectare
  degree of damage, Wheat: 4-5

## CCCC=Nn1c(SC)nnc(C(C)C)c1=O [Compound 217, 3-methylthio-4-(n-butylidene-amino)-6-isopropyl-1,2,4-triazine-5-one]
[5]; 1.25 kg/hectare
  degree of damage, Wheat: 4-5

## CSc1nnc(C(C)(C)C)c(=O)n1N=C(C)C [Compound 220, 3-methylthio-4-(prop-2'-ylidene-amino)-6-tert.-butyl-1,2,4-triazine-5-one]
[5]; 1.25 kg/hectare
  degree of damage, Wheat: 4-5

## CSc1nnc(C2CCCCC2)c(=O)n1N=C(C)C [Compound 224, 3-methylthio-4-(prop-2'-ylidene-amino)-6-cyclohexyl-1,2,4-triazine-5-one]
[2]; 1.2 Kg/hectare
  degree of damage, Wheat: 4-5
[2]; 2.4 Kg/hectare
  degree of damage, Wheat: 4-5
[5]; 1.25 kg/hectare
  degree of damage, Wheat: 4-5
[6]; 1.2 Kg/hectare
  degree of damage, Oats: 4-5

## CSc1nnc(C2CCCCC2)c(=O)n1N=Cc1ccccc1 [Compound 225, 3-methylthio-4-(benzylidene-amino)-6-cyclohexyl-1,2,4-triazine-5-one]
[3]; 2.5 kg/hectare
  degree of damage, Cotton: 4-5
[4]
  degree of damage, Echinochloa: 4-5
[2]; 0.6 Kg/hectare
  degree of damage, Wheat: 3-4
[7]; 0.6 Kg/hectare
  degree of damage, Echinochloa: 4-5
[6]; 2.4 Kg/hectare
  degree of damage, Oats: 4-5

## CSc1nnc(C2CCCCC2)c(=O)n1N=CC1CCCCC1 [Compound 228, 3-methylthio-4-(hexahydrobenzylidene-amino)-6-cyclohexyl-1,2,4-triazine-5-one]
[2]; 0.6 Kg/hectare
  degree of damage, Wheat: 4-5
[2]; 1.2 Kg/hectare
  degree of damage, Wheat: 4-5
[5]; 5 kg/hectare
  degree of damage, Wheat: 4-5
[7]; 0.6 Kg/hectare
  degree of damage, Echinochloa: 4-5
[1]; 5 kg/hectare
  degree of damage, Oats: 4-5
[6]; 1.2 Kg/hectare
  degree of damage, Oats: 4-5

## CSc1nnc(C2CCCCC2)c(=O)n1N=CC(C)C [Compound 229, 3-methylthio-4-(isobutylidene-amino)-6-cyclohexyl-1,2,4-triazine-5-one]
[3]; 5 kg/hectare
  degree of damage, Cotton: 4-5
[4]
  degree of damage, Echinochloa: 4-5
[5]; 5 kg/hectare
  degree of damage, Wheat: 4-5
[1]; 2.5 kg/hectare
  degree of damage, Oats: 4-5

## CNc1nnc(C(C)(C)C)c(=O)n1N=C(C)C [Compound 232, 3-methylamino-4-(prop-2'-ylidene-amino)-6-tert.-butyl-1,2,4-triazine-5-one]
[2]; 1.2 Kg/hectare
  degree of damage, Wheat: 4-5
[1]; 1.25 kg/hectare
  degree of damage, Oats: 4-5

## CNn1c(OC)nnc(-c2ccccc2)c1=O [Compound 234, 3-methoxy-4-methylamino-6-phenyl-1,2,4-triazine-5-one]
[1]; 5 kg/hectare
  degree of damage, Oats: 4-5
